Tests used:
[1] = tested on: HCT116p53−/− (human colorectal cancer, mutant p53); assay: MTT cytotoxic test, HCT116p53; assay type: cell-based; conditions: HCT116p53 cells (p53 −/−)
Description: (§1) MTT test (Nosková V. et al., Neoplasma 2002, 49, 418-425) was used for in vitro evaluation of antitumor activities of newly synthesized compounds on cell lines derived from normal tissues or tumors. Specifically, cell lines K562 (human acute myeloid leukemia); K562-Tax (human acute myeloid leukemia, paclitaxel resistant subline, overexpress multiple drug resistant protein PgP); CEM (T-lymfoblastic leukemia); CEM-DNR-bulk (T-lymfoblastic leukemia, doxorubicin resistant); A549 (human lung adenocarcinoma); HCT116p53 wt (human colorectal cancer, wild-type); HCT116p53−/− (human colorectal cancer, mutant p53) a U2OS (human bone osteosarcoma) were used. Express characteristics, susceptibility profiles of classic antitumor drugs as well as methodology of cytotoxic MTT test have been repeatedly published (Denizot, F.; Lang, R., J. Immunol. Meth. 1986, 89, 271-277; Noskova, V., see above; S̆arek J. et al., J, Med. Chem., 2003).

[2] = tested on: HCT116p53 wt (human colorectal cancer, wild-type); assay: MTT cytotoxic test, HCT116; assay type: cell-based; conditions: HCT-116, HCT116 cells, p53 wild type
Description: as §1

[3] = tested on: K562-Tax (human acute myeloid leukemia, paclitaxel resistant subline); assay: MTT cytotoxic test, K562-TAX; assay type: cell-based; conditions: K562-TAX cells
Description: as §1

[4] = tested on: U2OS (human bone osteosarcoma); assay: MTT cytotoxic test, U2OS; assay type: cell-based; conditions: U2OS cells
Description: as §1

[5] = tested on: A549 (human lung adenocarcinoma); assay: MTT cytotoxic test, A549; assay type: cell-based; conditions: A549 cells
Description: as §1

[6] = tested on: CEM-DNR-bulk (T-lymfoblastic leukemia, doxorubicin resistant); assay: MTT cytotoxic test, CEM-DNR; assay type: cell-based; conditions: Homo sapiens, CEM-DNR cells
Description: as §1

[7] = tested on: K562 (human acute myeloid leukemia); assay: MTT cytotoxic test, K562; assay type: cell-based; conditions: K562 cells
Description: as §1

[8] = tested on: CCRF-CEM (CEM, T-lymfoblastic leukemia); assay: MTT cytotoxic test, CCRF-CEM; assay type: cell-based; conditions: Homo sapiens, CCRF-CEM cells
Description: as §1

[9] = MTT cytotoxic test, MRC-5; assay type: cell-based; conditions: MRC-5 cells (normal fibroblasts), MRC-5 normal human fibroblasts

| melting point | Compound | IC50 [1] [µM] | IC50 [2] [µM] | IC50 [3] [µM] | IC50 [4] [µM] | IC50 [5] [µM] | IC50 [6] [µM] | IC50 [7] [µM] | IC50 [8] [µM] | IC50 [9] [µM] |
| --- | --- | --- | --- | --- | --- | --- | --- | --- | --- | --- |
|  | Cc1ncnc2c1c1occc1n2[C@@H]1O[C@H](CO)[C@@H](O)[C@H]1O [Compound 1a, 4-Methyl-8-(β-D-ribofuranosyl)-8H-furo[2′,3′:4,5]pyrrolo[2,3-d]pyrimidine] | 0.2 to 0.9 | 0.2 to 0.9 | 0.9 to 10 | 0.2 to 0.9 | 0.9 to 10 | 25 to 50 | 0.2 to 0.9 | 0.2 to 0.9 | 25 to 50 |
| 216 to 219 °C | COc1ncnc2c1c1occc1n2[C@@H]1O[C@H](CO)[C@@H](O)[C@H]1O [Compound 1b, 4-Methoxy-8-(β-D-ribofuranosyl)-8H-furo[2′,3′:4,5]pyrrolo[2,3-d]pyrimidine] | 0.2 to 0.9 | 0.2 to 0.9 | 0.2 to 0.9 | 0.2 to 0.9 | 0.9 to 10 | 0.9 to 10 | 0.2 to 0.9 | 0.01 to 0.2 | 10 to 25 |
| 213 to 217 °C | CSc1ncnc2c1c1occc1n2[C@@H]1O[C@H](CO)[C@@H](O)[C@H]1O [Compound 1c] | 0.2 to 0.9 | 0.2 to 0.9 | 0.9 to 10 | 0.2 to 0.9 | 0.9 to 10 | 0.9 to 10 | 0.2 to 0.9 | 0.2 to 0.9 | 0.9 to 10 |
| 246 to 253 °C | Nc1ncnc2c1c1occc1n2[C@@H]1O[C@H](CO)[C@@H](O)[C@H]1O [Compound 1d, 8-(β-D-ribofuranosyl)-8H-furo[2′,3′:4,5]pyrrolo[2,3-d]pyrimidin-4-amine] | 25 to 50 | 25 to 50 | 25 to 50 | 0.9 to 10 | 25 to 50 | 25 to 50 | 0.9 to 10 | 25 to 50 | 25 to 50 |
|  | OC[C@H]1O[C@@H](n2c3ccoc3c3c(-c4ccco4)ncnc32)[C@H](O)[C@@H]1O [Compound 1e, 4-(Furan-2-yl)-8-(β-D-ribofuranosyl)-8H-furo[2′,3′:4,5]pyrrolo[2,3-d]pyrimidine] | 25 to 50 | 25 to 50 | 0.9 to 10 | 0.9 to 10 | 25 to 50 | 25 to 50 | 0.9 to 10 | 0.2 to 0.9 | 25 to 50 |
|  | OC[C@H]1O[C@@H](n2c3ccoc3c3c(-c4ccoc4)ncnc32)[C@H](O)[C@@H]1O [Compound 1f, 4-(Furan-3-yl)-8-(β-D-ribofuranosyl)-8H-furo[2′,3′:4,5]pyrrolo[2,3-d]pyrimidine] | 10 to 25 | 10 to 25 | 0.9 to 10 | 0.2 to 0.9 | 25 to 50 | 25 to 50 | 0.2 to 0.9 | 0.2 to 0.9 | 25 to 50 |
|  | OC[C@H]1O[C@@H](n2c3ccoc3c3c(-c4cc5ccccc5o4)ncnc32)[C@H](O)[C@@H]1O [Compound 1g, 4-(Benzofuran-2-yl)-8-(β-D-ribofuranosyl)-8H-furo[2′,3′:4,5]pyrrolo[2,3-d]pyrimidine] | 25 to 50 | 25 to 50 | 10 to 25 | 25 to 50 | 25 to 50 | 25 to 50 | 25 to 50 | 10 to 25 | 25 to 50 |
| 212 to 255 °C (dec.) | CN(C)c1ncnc2c1c1occc1n2[C@@H]1O[C@H](CO)[C@@H](O)[C@H]1O [Compound 1h, N,N-dimethyl-8-(β-D-ribofuranosyl)-8H-furo[2′,3′:4,5]pyrrolo[2,3-d]pyrimidin-4-amine] | 25 to 50 | 25 to 50 | 25 to 50 | 25 to 50 | 25 to 50 | 25 to 50 | 25 to 50 | 25 to 50 | 25 to 50 |
| 237 to 241 °C | Cc1ncnc2c1c1c(ccn1C)n2[C@@H]1O[C@H](CO)[C@@H](O)[C@H]1O [Compound 2a, 4,5-Dimethyl-8-(β-D-ribofuranosyl)-5,8-dihydropyrrolo[2′,3′:4,5]pyrrolo[2,3-d]pyrimidine] | 0.2 to 0.9 | 0.2 to 0.9 | 25 to 50 | 0.2 to 0.9 |  | 25 to 50 | 0.2 to 0.9 | 0.2 to 0.9 | 25 to 50 |
| 231 to 234 °C | COc1ncnc2c1c1c(ccn1C)n2[C@@H]1O[C@H](CO)[C@@H](O)[C@H]1O [Compound 2b, 4-Methoxy-5-methyl-8-(β-D-ribofuranosyl)-5,8-dihydropyrrolo[2′,3′:4,5]pyrrolo[2,3-d]pyrimidine] | 0.2 to 0.9 | 0.2 to 0.9 | 25 to 50 | 0.9 to 10 | 25 to 50 | 25 to 50 | 0.2 to 0.9 | 0.2 to 0.9 | 25 to 50 |
| 212 to 214 °C | CSc1ncnc2c1c1c(ccn1C)n2[C@@H]1O[C@H](CO)[C@@H](O)[C@H]1O [Compound 2c, 5-Methyl-4-(methylsulfanyl)-8-(β-D-ribofuranosyl)-5,8-dihydropyrrolo[2′,3′:4,5]pyrrolo-[2,3-d]-pyrimidine] | 0.2 to 0.9 | 0.2 to 0.9 | 25 to 50 | 0.9 to 10 | 25 to 50 | 25 to 50 | 0.2 to 0.9 | 0.2 to 0.9 | 25 to 50 |
| 240 to 245 °C (dec.) | Cn1ccc2c1c1c(N)ncnc1n2[C@@H]1O[C@H](CO)[C@@H](O)[C@H]1O [Compound 2d, 5-methyl-8-(β-D-ribofuranosyl)-5,8-dihydropyrrolo[2′,3′:4,5]pyrrolo[2,3-d]pyrimidin-4-amine] | 25 to 50 | 25 to 50 | 25 to 50 | 25 to 50 | 25 to 50 | 25 to 50 | 25 to 50 | 25 to 50 | 25 to 50 |
| 245 to 253 °C | Cn1ccc2c1c1c(-c3ccco3)ncnc1n2[C@@H]1O[C@H](CO)[C@@H](O)[C@H]1O [Compound 2e, 4-(Furan-2-yl)-5-methyl-8-(β-D-ribofuranosyl)-5,8-dihydropyrrolo[2′,3′:4,5]pyrrolo[2,3-d]pyrimidine] | 25 to 50 | 25 to 50 | 25 to 50 | 0.9 to 10 | 25 to 50 | 25 to 50 | 25 to 50 | 25 to 50 | 25 to 50 |
| 202 to 207 °C | Cn1ccc2c1c1c(-c3ccoc3)ncnc1n2[C@@H]1O[C@H](CO)[C@@H](O)[C@H]1O [Compound 2f, 4-(Furan-3-yl)-5-methyl-8-(β-D-ribofuranosyl)-5,8dihydropyrrolo[2′,3′:4,5]pyrrolo[2,3-d]pyrimidine] | 0.9 to 10 | 25 to 50 | 25 to 50 | 0.9 to 10 | 25 to 50 | 25 to 50 | 0.9 to 10 | 25 to 50 | 25 to 50 |
| 145 to 154 °C | Cn1ccc2c1c1c(-c3cc4ccccc4o3)ncnc1n2[C@@H]1O[C@H](CO)[C@@H](O)[C@H]1O [Compound 2g, 4-(Benzofuran-2-yl)-5-methyl-8-(β-D-ribofuranosyl)-5,8-dihydropyrrolo[2′,3′:4,5]pyrrolo[2,3-d]pyrimidine] | 25 to 50 | 25 to 50 | 25 to 50 | 25 to 50 | 25 to 50 | 25 to 50 | 25 to 50 | 10 to 25 | 25 to 50 |
| 99 to 106 °C | CN(C)c1ncnc2c1c1c(ccn1C)n2[C@@H]1O[C@H](CO)[C@@H](O)[C@H]1O [Compound 2h, N,N,5-trimethyl-8-(β-D-ribofuranosyl)-5,8-dihydropyrrolo[2′,3′:4,5]pyrrolo[2,3-d]pyrimidin-4-amine] | 25 to 50 | 25 to 50 | 25 to 50 | 25 to 50 | 25 to 50 | 25 to 50 | 25 to 50 | 25 to 50 | 25 to 50 |
| 217 to 219 °C | Cn1ccc2c1c1c(Cl)ncnc1n2[C@@H]1O[C@H](CO)[C@@H](O)[C@H]1O [Compound 2i, 4-chloro-5-methyl-8-(β-D-ribofuranosyl)-5,8-dihydropyrrolo[2′,3′:4,5]pyrrolo[2,3-d]pyrimidine] | 0.01 to 0.2 | 0.01 to 0.2 | 25 to 50 | 0.9 to 10 | 0.9 to 10 | 25 to 50 | 0.01 to 0.2 | 0.01 to 0.2 | 25 to 50 |

Source: patent US10730905B2, “Substituted heteropentadieno-pyrrolopyrimidine ribonucleosides for therapeutic use” (USTAV ORGANICKE CHEMIE A BIOCHEMIE AV CR, V.V.I., priority 2016, dated 2020)
